Assays:
CASC10 [1] = experiment: RT-qPCR of CASC10 expression after siRNA transfection in OVCAR3CIS cells; format: cell-based; details: vs NC-siRNA
Method: (§1) SiRNA ON-TARGET plus SMARTpool (a mixture of 4 siRNA as a single tube) and a negative control siRNA (NC-siRNA) (Sigma-Aldrich) were used for transfection studies. CASC10, was targeted by using two siRNAs targeting different regions of the CASC10 RNA (e.g., CASC10-siRNA (1) and CASC10-siRNA (2)). OVCAR3CIS or SKOV3ip1CIS cells were seeded into 12-well plates at 3.0×10^4 cells/mL. The next day, siRNAs were mixed with HiPerfect transfection reagent (Qiagen, Valencia, CA) at a 1:2 ratio (SIRNA: HiPerfect) in serum and antibiotic-free Opti-MEM medium (Gibco) and added to the cells. After twenty-four hours the media was replaced by regular culture media, and cells were cultured and used for further experiments. To assess siRNA transfection efficiency, cells were collected 24 hours after siRNA transfection.
(§2) A custom-made 384-well plate containing pre-designed forward and reverse primers was purchased from Bio-Rad (CA, USA). Total RNA was isolated from OVCAR3 and OVCAR3CIS cells using the GenElute Mammalian Total RNA Mini Kit (Millipore-Sigma, MO, USA) following the manufacturer's instructions. […] Fold-changes and cycle threshold (Ct) values were calculated by the instrument's internal software relative to OVCAR3 cells and normalized to B-actin along with controls for gDNA, PCR reaction, RT reaction, and RNA quality.

OVCAR3CIS cells = experiment: Matrigel transwell invasion assay; format: cell-based; details: vs NC-siRNA
Method: Cell invasion was measured using the Matrigel transwell method. OVCAR3CIS (3.0×10^4 cells/mL) or SKOVip1CIS (3.5×10^4 cells/mL) were seeded into 10 cm Petri dishes and transfected with siRNAs. Twenty-four hours later, serum-free matrigel (BD Biosciences CA, USA) was added onto the upper chambers of 24-well plates and incubated at 37° C. for polymerization. Transfected cells were collected and resuspended in serum-free and re-seeded onto the Matrigel-coated chambers. Medium containing 10% FBS was added to the lower area of the wells, and the plates incubated for 48 hours at 37° C. The medium was removed, and cells that invaded through the matrigel fixed and stained using ProtocolHema 3 Stain Set (Fisher Scientific MI, USA). Invaded cells were microscopically counted using a digital camera to capture images at a 20× resolution. The percentage of cell invasion was calculated using the NC-SIRNA condition as 100% cell invasion.

CASC10 [2] = experiment: RT-qPCR of CASC10 expression after siRNA transfection in SKOV3ip1 cells; format: cell-based, human; details: SKOV3ip1 cells as printed
Method: as §1, §2

SKOV3ip1CIS cells [3] = experiment: Colony formation assay after siRNA transfection; format: cell-based, human; details: SKOV3ip1CIS (FIG. 8B)
Method: as §1
OVCAR3CIS cells (3.0×10^4 cells/mL) or SKOV3ip1CIS (3.0×10^4 cells/mL) were seeded into 12-well plates. Twenty-four hours later, cells were transfected with 100 nM (final concentration) of each siRNA. […] Colonies of at least 50 cells were counted using a light microscope (CKX41: Olympus, Center Valley, PA, USA) with a total magnification of 40x. […] Optical density (OD) was measured, and percentages of cell viability were calculated after blank OD subtraction. Untreated cells were assessed as 100% cell viability.

OVCAR3 cells = experiment: Cell viability, Alamar blue, siRNA; format: cell-based; details: OVCAR3, any siRNA concentration tested, vs NC-siRNA
Method: OVCAR3CIS cells (3.0×10^4 cells/mL) or SKOV3ip1CIS (3.0×10^4 cells/mL) were seeded into 12-well plates. Twenty-four hours later, cells were transfected with 100 nM (final concentration) of each siRNA. The next day, 400 cells (OVCAR3CIS) or 1,000 cells (SKOV3ip1CIS) were seeded into 6-well plates and incubated for seven days, fixed and stained with 0.5% crystal violet in methanol. Colonies of at least 50 cells were counted using a light microscope (CKX41: Olympus, Center Valley, PA, USA) with a total magnification of 40x. For cell viability assays, OVCAR3 and OVCAR3CIS (3.0×10^4 cells/mL) or SKOV3ip1and SKOV3ip1CIS (3.5×10^4 cells/mL) were seeded into 96-well plates, and 24 hours later, siRNA transfection was performed as described above. The next day, the transfection mix was replaced with cisplatin (CIS) (2.5 uM final concentration dissolved in regular cell culture media) and after forty-eight hours, the medium was removed, and Alamar blue dye (Invitrogen, Thermo Fisher Scientific, Eugene, OR, USA) was added following the manufacturer's instructions. Optical density (OD) was measured, and percentages of cell viability were calculated after blank OD subtraction. Untreated cells were assessed as 100% cell viability.

Caspase-3 = Caspase-3 fluorometric activity in OVCAR3CIS cells; format: cell-based; details: 72 hours after transfection, vs NC-siRNA
Method: Caspase-3 activity was quantified using the Caspase-3/CPP32 Fluorometric Assay Kit (BioVision CA, USA) as per the manufacturer's instructions. OVCAR3CIS (3.0×10^4 cells/mL) or SKOV3ip1CIS (3.5×10^4 cells/mL) were seeded into 10 cm Petri dishes and transfected with NC-siRNA or CASC10-siRNA (2). Twenty-four hours later, the media was replaced by regular media, and seventy-two hours after transfection, cells were collected, pellets lysed, and total protein concentration determined. Equal amounts of protein were mixed with 2×Reaction Buffer and 1 mM DEVD-AFC substrate in a 96-well plate and incubated at 37° C. for 2.5 hours. Fluorescence intensity at 400 nm excitation and 505 nm emission was measured.

SKOV3ip1CIS cells [4] = experiment: Western blot of apoptotic-related and cell-cycle related proteins; format: cell-based, human
Method: Cell pellets were lysed with complete lysis buffer and total protein concentration […]. Protein samples were separated by SDS-PAGE, blotted onto nitrocellulose membranes, blocked in either 5% non-fat dry milk (Bio-Rad) or 5% BSA (HyClone), and probed with the appropriate dilution of corresponding primary antibody. Membranes were rinsed and incubated with corresponding HRP-conjugated secondary antibody, followed by enhanced chemiluminescence and autoradiography.

OVCAR3CIS = experiment: Cell cycle progression by flow cytometry; format: cell-based; details: 48 hours post-transfection
Method: (§3) To assess cell cycle progression, OVCAR3CIS (3.0×10^4 cells/mL) or SKOV3ip1CIS (3.5×10^4 cells/mL) were seeded into 10 cm Petri dishes and transfected with NC-siRNA or CASC10-siRNA (2). Forty-eight hours later, attached cells were collected, washed in ice-cold PBS, fixed with 70% cold ethanol, and stored at 4° C. Cells were then washed with ice-cold PBS, resuspended in propidium iodide (PI)/RNase Staining Buffer, incubated in the dark for 15 minutes at room temperature, and then analyzed by flow cytometry in BD C6 Accuri (CA, USA). Accuri's software was used to determine the percentage of cells in each cell cycle phase.

SKOV3IP1CIS = experiment: Cell cycle progression by flow cytometry; format: cell-based, human; details: 48 hours post-transfection
Method: as §3

CASC10-siRNA (2): siRNA targeting CASC10 RNA, SEQ ID NO 3 and 4: 5′ GACUCUUGGAUCCAAGUUU(dT)(dT) 3′ / 5′ AAACUUGGAUCCAAGAGUC(dT)(dT) 3′ (chain 1 GACUCUUGGAUCCAAGUUUNN; chain 2 AAACUUGGAUCCAAGAGUCNN; 3' dTdT overhangs, chemistry not fully specified)
decrease of CASC10 expression (CASC10 [1]): 57% | reduction of invasiveness (OVCAR3CIS cells): 62% | decrease of CASC10 relative expression (CASC10 [2]): 75% | reduction in the number of colonies (SKOV3ip1CIS cells [3]): 86% | cell viability (OVCAR3 cells): did not significantly reduce cell viability | increase in caspase-3 activity (Caspase-3): 5 fold | Bcl-2 decrease (SKOV3ip1CIS cells [4]): 66% | cleaved Caspase-3 increase (SKOV3ip1CIS cells [4]): 6 fold | cleaved Caspase-9 increase (SKOV3ip1CIS cells [4]): 2 fold | cleaved PARP-1 increase (SKOV3ip1CIS cells [4]): 7 fold | CDK4 protein (SKOV3ip1CIS cells [4]; vs NC-siRNA): reduction | Cyclin E1 protein (SKOV3ip1CIS cells [4]; vs NC-siRNA): reduction | p27 protein levels (SKOV3ip1CIS cells [4]; vs NC-siRNA): reduction | cell cycle progression (OVCAR3CIS): cell cycle arrest in the G0/G1 to S phase | cell cycle progression (SKOV3IP1CIS): cell cycle arrest in the G0/G1 to S phase

Source: patent publication US20250333733A1, “NOVEL TARGETS AGAINST OVARIAN CANCER” (UNIVERSITY OF PUERTO RICO, priority 2022, published 2025)
